Experimental data reported in US20190314382A1, “COMPOUNDS AND PHARMACEUTICAL COMPOSITIONS THEREOF FOR THE TREATMENT OF INFLAMMATORY DISEASES” (Galapagos NV, priority 2016, published 2019).

Legend:
Type in all cases: in vivo, human
Settings in all cases: observed case
[1] = tested on: IL-1β; test: Biomarker study in RA subjects: serum IL-1β, Luminex 18-Plex
Procedure: (§1) Double-blind, placebo-controlled add on study in subjects with moderately to severely active RA who have an inadequate response to MTX (oral or parenteral).
(§2) 595 subjects randomized to one of 6 dose regimens of Compound 1 (dosed as a [Compound 1:HCl:3H2O]) (3 dose levels administered either once or twice daily) or placebo on top of each subject's stable dose of MTX.
(§3) Compound 1 (dosed as a [Compound 1:HCl:3H2O]) is dosed for twelve weeks once daily (q.d.) (50 mg, 100 mg or 200 mg) or twice daily (b.i.d.) (25 mg, 50 mg or 100 mg); or placebo.
(§4) 18 parameters from human serum samples (GM-CSF, IFNγ, IL-1β, IL-2, IL-4, IL-5, IL-6, IL-7, IL-8, IL-10, IL-12 (p70), IL-13, IL-17A, IL-21, IL-23, MIP-1α, MIP-1β and TNF-α) are analyzed on a Luminex Plateform (BioPlex® L200) using a Luminex 18-Plex Kit (Millipore: HSTCMAG-28SK).
(§5) Coupled beads react with the sample containing the biomarker of interest. […] Phycoerythrin (PE) serves as a fluorescent indicator.
(§6) The concentration of bead bound analyte is proportional to the MFI (Median Fluorescent Intensity) and back-calculated from interpolation with the calibration curve fitted with a 4 or 5 parameters logistic (4PL or 5PL) regression model selected during method pre-validation.
(§7) Treatment effect was assessed using an ANCOVA model on the changes from baseline, with factors: treatment, baseline value of the PD marker, geographical region and previous use of biologics.

[2] = tested on: TNF-α; test: Biomarker study in RA subjects: serum TNF-α, Luminex 18-Plex
Procedure: as §1, §2, §3, §4, §5, §6, §7

[3] = tested on: MIP-1α; test: Biomarker study in RA subjects: serum MIP-1α, Luminex 18-Plex
Procedure: as §1, §2, §3, §4, §5, §6, §7

[4] = tested on: MIP-1β; test: Biomarker study in RA subjects: serum MIP-1β, Luminex 18-Plex
Procedure: as §1, §2, §3, §4, §5, §6, §7

[5] = tested on: IL-12 (p70); test: Biomarker study in RA subjects: serum IL-12, Luminex 18-Plex
Procedure: as §1, §2, §3, §4, §5, §6, §7

[6] = 50 mg bid, Week 4, N = 73, RA subjects on MTX
[7] = 50 mg bid, Week 12, N = 73, RA subjects on MTX
[8] = 100 mg bid, Week 4, N = 79, RA subjects on MTX
[9] = 100 mg bid, Week 12, N = 79, RA subjects on MTX
[10] = 100 mg qd, Week 4, N = 68, RA subjects on MTX
[11] = 100 mg qd, Week 12, N = 68, RA subjects on MTX
[12] = 200 mg qd, Week 4, N = 75, RA subjects on MTX
[13] = 200 mg qd, Week 12, N = 75, RA subjects on MTX

With O=C(Nc1nc2cccc(-c3ccc(CN4CCS(=O)(=O)CC4)cc3)n2n1)C1CC1 [Compound 1, cyclopropanecarboxylic acid {5-[4-(1,1-dioxo-thiomorpholin-4-ylmethyl)-phenyl]-[1,2,4]triazolo[1,5-a]pyridin-2yl}-amide] the “IL-1βb Mean change from baseline at Week 4” value [1, 6] was 1.4 pg/mL, the “IL-1βb Mean change from baseline at Week 12” value [1, 7] was -0.9 pg/mL and the “IL-1βb Mean change from baseline at Week 4” value [1, 8] was -1.0 pg/mL. The “IL-1βb Mean change from baseline at Week 12” value [1, 9] was -1.8 pg/mL, the “IL-1βb Mean change from baseline at Week 4” value [1, 10] was -0.6 pg/mL and the “IL-1βb Mean change from baseline at Week 12” value [1, 11] was -1.2 pg/mL. For the same compound, the “IL-1βb Mean change from baseline at Week 4” value [1, 12] was -0.6 pg/mL, the “IL-1βb Mean change from baseline at Week 12” value [1, 13] was -1.6 pg/mL and the “TNFα Mean change from baseline at Week 4” value [2, 6] was -0.2 pg/mL. For the same compound, the “TNFα Mean change from baseline at Week 12” value [2, 7] was 0.3 pg/mL, the “TNFα Mean change from baseline at Week 4” value [2, 8] was -1.7 pg/mL and the “TNFα Mean change from baseline at Week 12” value [2, 9] was -2.2 pg/mL. The “TNFα Mean change from baseline at Week 4” value [2, 10] was 1.0 pg/mL, the “TNFα Mean change from baseline at Week 12” value [2, 11] was -1.0 pg/mL and the “TNFα Mean change from baseline at Week 4” value [2, 12] was 0.0 pg/mL. The “TNFα Mean change from baseline at Week 12” value [2, 13] was -1.2 pg/mL, the “MIP-1α Mean change from baseline at Week 4” value [3, 6] was 1.0 pg/mL and the “MIP-1α Mean change from baseline at Week 12” value [3, 7] was 8.5 pg/mL. For the same compound, the “MIP-1α Mean change from baseline at Week 4” value [3, 8] was -3.1 pg/mL, the “MIP-1α Mean change from baseline at Week 12” value [3, 9] was -5.2 pg/mL and the “MIP-1α Mean change from baseline at Week 4” value [3, 10] was 7.0 pg/mL. For the same compound, the “MIP-1α Mean change from baseline at Week 12” value [3, 11] was 9.1 pg/mL, the “MIP-1α Mean change from baseline at Week 4” value [3, 12] was -1.6 pg/mL and the “MIP-1α Mean change from baseline at Week 12” value [3, 13] was -2.6 pg/mL. The “MIP-1β Mean change from baseline at Week 4” value [4, 6] was 0.4 pg/mL, the “MIP-1β Mean change from baseline at Week 12” value [4, 7] was -1.1 pg/mL and the “MIP-1β Mean change from baseline at Week 4” value [4, 8] was -2.1 pg/mL. The “MIP-1β Mean change from baseline at Week 12” value [4, 9] was -1.3 pg/mL, the “MIP-1β Mean change from baseline at Week 4” value [4, 10] was -0.7 pg/mL and the “MIP-1β Mean change from baseline at Week 12” value [4, 11] was -1.7 pg/mL. The “MIP-1β Mean change from baseline at Week 4” value [4, 12] was -1.6 pg/mL, the “MIP-1β Mean change from baseline at Week 12” value [4, 13] was -1.5 pg/mL and the “IL-12 Mean change from baseline at Week 4” value [5, 6] was -1.9 pg/mL. The “IL-12 Mean change from baseline at Week 12” value [5, 7] was -2.3 pg/mL, the “IL-12 Mean change from baseline at Week 4” value [5, 8] was -2.3 pg/mL and the “IL-12 Mean change from baseline at Week 12” value [5, 9] was -3.9 pg/mL. For the same compound, the “IL-12 Mean change from baseline at Week 4” value [5, 10] was -0.2 pg/mL, the “IL-12 Mean change from baseline at Week 12” value [5, 11] was -1.2 pg/mL and the “IL-12 Mean change from baseline at Week 4” value [5, 12] was -1.7 pg/mL. The “IL-12 Mean change from baseline at Week 12” value [5, 13] was 20.5 pg/mL.
